Test results from patent US20060280697A1, “Composition” (Conopco Inc, d/b/a UNILEVER, priority 2005, published 2006).
Entries after “also recorded” stand apart in the source; their conditions may differ.

Test: cooling sensation / cooling effect of synthesised compounds
With `COc1cccc(C2=CCN(c3ccccc3O)C(=O)N2)c1` [1-(2′-hydroxyphenyl)-4-(3″-methoxyphenyl)-1,2,3,6-tetrahydropyrimidine-2-one] the cooling effect was “good cooling effects; also recorded: exhibit a cooling effect”.
With `O=C1NC(c2ccccc2)=CCN1c1ccccc1O` [1-(2′-hydroxyphenyl)-4-phenyl-1,2,3,6-tetrahydropyrimidine-2-one] the cooling effect was “good cooling effects; also recorded: exhibit a cooling effect”.
For `O=C1NC(c2cccc([N+](=O)[O-])c2)=CCN1c1ccccc1C(F)(F)F` [1-(2′-trifluoromethylphenyl)-4-(3″-nitrophenyl)-1,2,3,6-tetrahydropyrimidine-2-one], the cooling effect was “good cooling effects; also recorded: exhibit a cooling effect”.
With `O=C1NC(c2cccc([N+](=O)[O-])c2)=CCN1c1ccccc1` [1-phenyl-4-(3″-nitrophenyl)-1,2,3,6-tetrahydropyrimidine-2-one] the cooling effect was “good cooling effects; also recorded: exhibit a cooling effect”.
